Test results taken from US20200338195A1, “PHARMACEUTICAL COMPOSITIONS COMPRISING 0.25 MG DOSE OF SYNTHETIC HUMAN PEPTIDES FOR TREATING SYSTEMIC LUPUS ERYTHEMATOSUS” (priority 2016, published 2020).
“Also recorded” adds a separate entry of the source. Like-named read-outs stand apart in the source and are kept apart here.

Tests used:
subjects with active SLE = experiment: Low dose Edratide therapy, 26-week phase 2 dose-ranging study (Example 2); type: in vivo, human
Excerpt: The study will test about 200 study subjects, in about 50 centres. The study population will include seropositive SLE patients (presence of anti-dsDNA antibodies by FARRzyme immunoassay, titer ≥30 IU, and/or the Crithidia luciliae immunofluorescence test, and/or antinuclear antibodies (ANA) ≥1:160 or 1:80 in which case the Adjudication Committee would review the subject's data at baseline.
The total duration of the study is expected to be 34 weeks: • Screening Phase: <30 days (4 weeks) • Phase 2 double-blind treatment phase: 26 weeks (6 months) • Follow-up phase for safety: 4 weeks
Glucocorticoid dosing: It is highly recommended to initiate tapering from the baseline dose of prednisone/prednisone equivalent on or after week 4, as clinically indicated from doses ≥15 mg/day to ≥7.5 mg/day; tapering could continue until week 18. No changes in dose of prednisone/prednisone equivalent doses are allowed during weeks 19-26, the last 8 weeks of the trial. No specific tapering regimen is required, but to be determined as clinically indicated by the investigator.
Active SLE patients will be screened for up to 30 days prior to the baseline visit (visit 2). Each subject will undergo screening evaluations.
The subjects must meet the following inclusion criteria: • 1.Subjects diagnosed with SLE must have a documented medical history to meet Systemic Lupus International […] (SLICC) classification criteria for SLE, or have accumulated 4 classification criteria (1997 revised) of the American College of Rheumatology (ACR) for SLE prior to first dose. • 2. Subjects with active SLE must have: • a. At least one BILAG-A and/or two BILAG-B's, and • b. SLEDAI score of 6 or higher, excluding serology scores, and be • c. Serologically-positive as defined by 2 positive ANA or anti-dsDNA antibody test results (titer ≥30 IU by FARR radioimmunoassay and/or the Crithidia luciliae immunofluorescence test, and/or ANA 1:160 or 1:80 in which case the adjudication committee would review the subject's data) of which ≥1 test result must be obtained during screening • 3. Subjects must be ≥18 years of age • 4. SLE patients on stable SLE treatment regimen for at least three (3) months • 5. SLE patients on 15 mg of prednisone/prednisone equivalent, which have been stable for at least 14 days • 6. Subjects receiving 2 g/days of Mycophenolate mofetil (MMF) or ≤1440 mg of Myfortic • 7. Women of child-bearing potential must practice a medically acceptable method of contraception. Acceptable methods include: surgical sterilization, IUD, hormonal preparations, or double barrier method (e.g. condom or diaphragm with spermicidal) • 8. Subjects must be willing and able to give written informed consent prior to entering the study. • 9. Subjects must understand the requirements of the study and agree to comply with the study protocol.
The presence of any of the following excludes a subject from study enrollment: • i. Subjects with active Lupus nephritis as defined by a protein to creatinine ratio limit of ≥0.75 and/or active urine sediments defined as hematuria (>10 RBC/HPF) and/or RBC casts. • ii. Subjects with active central nervous system (CNS) Lupus as defined by CNS BILAG-A or BILAG-B. • iii. Subjects with active peripheral nervous system (PNS) Lupus as defined by PNS BILAG-A or BILAG-B. • iv. Subjects receiving >15 mg of glucocorticoid at baseline • v. Subjects having recently received • a. Cyclophosphamide (wash-out period 3 months), • b. Cyclosporine (wash-out period 3 months), • c. Rituximab (wash-out period at least 52 weeks provided that the CD19 count has returned to normal), or • d. Belimumab (wash-out period 6 months) • e. Any investigational drug (wash-out period 5 half-lives of elimination) […]

SLE patients [1] = conditions: cited from earlier work; for incidence of adverse events (AEs), % of the subjects: placebo 75%
SLE patients [2] = experiment: PRELUDE Study, phase 2 placebo-controlled efficacy, tolerability and safety study of three doses of Edratide; conditions: for early withdrawal due to AE, % of subjects: placebo 2.3%; for AE incidence: 26 weeks, placebo 79.3%
Description: The total study treatment duration was 26 weeks. Scheduled visits were performed at screening, baseline and at weeks 4, 8, 12, 16, 20, 24, and 26 (termination). […] Non-compliance with the tapering down scheme was not regarded as a protocol violation. During the entire course of the study it was allowed to increase the steroid prednisolone dose to up to 60 mg. Use of intravascular/intramuscular steroid was considered a protocol violation. […] PK assessment of CAPTISOL® for all four treatment groups was conducted following the first dose and Weeks 12 and 26 doses. Disease and drug related immunology parameters were tested at baseline and at several time points thereafter.
The main inclusion criteria of this trial were: • SLEDAI 2K score of 6-12 • Stable concomitant medications (prednisone<40 mg, NSAIDs, antimalarials) for at least 1 month prior to baseline.
The co-primary end-points presented in their hierarchical order below were: • Change from baseline to last observed value (LOV) in SLEDAI 2K score (Landmark Analysis.) • Adjusted Mean SLEDAI 2K (AMS). AMS represents the time weighted average of disease activity as measured by SLEDAI 2K score [area under the curve (AUC) of SLEDAI 2K].
Secondary end-points: • BILAG proportion of responders. BILAG responders were defined as: • a. Non Responder (NR)—same BILAG score in Last Observed Value (LOV) as in baseline in all systems or new A or B in at least one system compared to baseline (other systems may improve or deteriorate). • b. Substantial Responder (SR)—all systems at LOV are either C or D/E providing that at least one system was either A or B at baseline • c. […] Mental component Score. Change from baseline to LOV • SF-36 (QoL) Physical component Score—Change from Baseline to LOV • Time Weighted Average (TWA) on cumulative steroids dose with p.o. administration.
Exploratory end-points: • Primary end-point sensitivity analysis to steroid increase (excluding the observations following steroid increase) • Proportions of Zero SLEDAI Score at LOV • Time to Zero SLEDAI Score • BILAG Total Score—Change from Baseline to LOV
Flares Analysis: • Time to medicinal flare • Time to new BILAG A or at least two new B's • Time to new BILAG A or at least two new B's (excluding persistent activity) • Steroid dose (PO)—Change from baseline to LOV • PGA—Physician's Global Assessment

[3] = test system: SLE patients with stable, mild to moderate SLE disease; conditions: cited from earlier work
[4] = test system: mice afflicted with spontaneous or experimental SLE; conditions: mouse, in vivo; cited from earlier work
[5] = test system: peripheral blood lymphocytes (PBL) of SLE patients; conditions: cited from earlier work

## H-GYYWSWIRQPPGKGEEWIG-OH [Edratide]
Subjects with active SLE; 0.25 mg sc every week
  global assessment of disease activity based on MCID: significant improvement
  mean Lupus-QOL relative to baseline: significant improvement
Subjects with active SLE; 0.25 mg sc every week, Fortin definition
  mean time to first confirmed major SLE flare: significantly increased
Subjects with active SLE; 0.25 mg sc every week, new BILAG A or two new BILAG B
  mean time to first confirmed severe SLE flare: significantly increased
Subjects with active SLE; 0.25 mg sc every week, specific sub-populations of SLE subjects
  disease parameter/s: improvements of disease parameter/s; also recorded: improvement of at least one disease parameter
Subjects with active SLE; 0.25 mg sc every week, week 26
  mean glucocorticoid dose relative to baseline: significant change
  proportion of subjects achieving MCID of one by SLEDAI-2K Responder Index 50: significant proportion
  proportion of subjects achieving a response by composite SLE Responder Index (cSRI): significant proportion
  proportion of subjects achieving response by the SLE Responder Index: significant proportion
  proportion of subjects having all organ systems either BILAG C or BILAG D/E: significant proportion
Subjects with active SLE; 0.25 mg sc every week, week 26, primary outcome
  proportion of subjects with at least one BILAG A or B organ system at baseline dropping by one score without deterioration to BILAG A or B in any other system: significant proportion
Subjects with active SLE; weekly 0.25 mg dose
  reduction of the amount of corticosteroid therapy required to control disease activity of SLE: effective in enabling reduction
SLE patients [1]; single sc 0.5, 1 or 2.5 mg, any subject except one in the 0.5 mg group (2 to 10 points at Week 4)
  change of total SLEDAI-2K score during the study: No noteworthy change
SLE patients [1]; single sc injection 0.5 mg
  incidence of adverse events (AEs), % of the subjects: 33%
SLE patients [1]; single sc injection 1 mg
  incidence of adverse events (AEs), % of the subjects: 67%
SLE patients [1]; single sc injection 2.5 mg
  incidence of adverse events (AEs), % of the subjects: 80%
SLE patients [2]; 0.5 mg Edratide
  post hoc analysis on BILAG responders, system improved: improvement mainly in the cutaneous system
SLE patients [2]; 0.5 mg Edratide (6 subjects), placebo 10.3%
  Serious Adverse Events (SAEs), % of subjects: 7.1%
SLE patients [2]; 1.0 mg dose group (10 subjects), placebo 10.3%
  Serious Adverse Events (SAEs), % of subjects: 11.5%
SLE patients [2]; 2.5 mg dose group (8 subjects), placebo 10.3%
  Serious Adverse Events (SAEs), % of subjects: 9.8%
SLE patients [2]; Edratide 0.5 mg (5 subjects)
  early withdrawal due to AE, % of subjects: 6.0%
SLE patients [2]; Edratide 0.5 mg group, most probably septic shock, classified as not related to study drug
  deaths during the study: One
SLE patients [2]; Edratide 0.5 mg sc
  AE incidence: 82.1%
SLE patients [2]; Edratide 0.5 mg, ITT, LOV vs baseline, placebo 22%, p=0.03
  BILAG substantial responders, % of subjects: 36%
SLE patients [2]; Edratide 0.5 mg, ITT, post hoc, n=14, placebo 29% (n=25), p=0.039
  subjects with a medicinal flare: 17%
SLE patients [2]; Edratide 0.5 mg, ITT, post hoc, p=0.039
  medicinal flare, OR vs placebo: 0.43
SLE patients [2]; Edratide 0.5 mg, ITT, p=0.03, not significant after multiplicity adjustment
  BILAG substantial response, odds ratio (OR) vs placebo: 2.09
SLE patients [2]; Edratide 0.5 mg, opposite trend for the physical score
  change in the SF-36 mental score compared to placebo: slightly better
SLE patients [2]; Edratide 1.0 mg (3 subjects)
  early withdrawal due to AE, % of subjects: 3.4%
SLE patients [2]; Edratide 1 mg sc
  AE incidence: 77%
SLE patients [2]; Edratide 1 mg, p=0.07 without correction for multiple comparison
  BILAG substantial responders, OR vs placebo: 1.85
SLE patients [2]; Edratide 2.5 mg (3 subjects)
  early withdrawal due to AE, % of subjects: 3.7%
SLE patients [2]; Edratide 2.5 mg sc
  AE incidence: 75.6%
SLE patients [2]; Edratide 0.5, 1 and 2.5 mg
  safety signal and dose response from the AEs analysis and additional safety data: no clear dose response and no significant safety signal
SLE patients [2]; Edratide vs placebo
  early terminations due to AEs vs placebo: more often on Edratide than on placebo
SLE patients [2]; ITT, n=26, placebo 20% (n=17), p=0.058, FIG. 4
  cSRI positive responders: 34%
SLE patients [2]; anti-DNA>30 IU at baseline, n=11, placebo 68% (n=21), p=0.05
  BILAG non-responders, seropositive patients: 42%
SLE patients [2]; anti-DNA>30 IU at baseline, placebo 26%, FIG. 2C
  BILAG substantial responders, seropositive patients: 46%
SLE patients [2]; any of the active treatment groups (0.5, 1, 2.5 mg)
  co-primary endpoints (change from baseline to LOV in SLEDAI 2K score; adjusted mean SLEDAI 2K) vs placebo: no differences
SLE patients [2]; change from baseline to LOV
  SF-36 mental or physical scores, differences between the treatment groups: No clinically or statistically significant differences
SLE patients [2]; mean baseline steroids dose 9-10 mg/day of prednisolone
  cumulative change in steroid dose throughout the study, differences between the treatment groups: No clinically or statistically significant differences
SLE patients [2]; no steroids at baseline, 0.5 mg Edratide, placebo 13%, p=0.05
  BILAG substantial responders, % of subjects: 54%
SLE patients [2]; overall, regardless of treatment
  mean reduction from baseline SLEDAI-2K score: about 35%
SLE patients [2]; pooled Edratide group, placebo 10.3%
  SAE incidence: 9.5%
SLE patients [2]; prednisolone dose <20 mg at baseline (pooled cohort of 292 subjects), placebo 19%, p=0.007, FIG. 2B
  BILAG substantial responders, % of subjects: 40%
SLE patients [2]; prednisolone dose <20 mg at baseline, p=0.007
  BILAG substantial response, OR vs placebo: 2.75
[3]; 0.5 mg group
  subjects with an increase in total SLEDAI-2K score of 0-3 points during the study: Two
[3]; 2.5 mg group
  subjects with an increase in total SLEDAI-2K score of 0-3 points during the study: 2 subjects
[3]; all treatment groups
  subjects reporting AEs during the 8-week follow-up period (off-drug): Approximately 50%
[3]; all treatment groups, decrease = improvement
  adjusted mean SLEDAI (AMS) score, change from baseline to termination visit: −0.1 to −1.5 points
[3]; any treatment group
  mean group total BILAG score during the study: No trend
[3]; sc twice weekly for 4 weeks, 0.5, 1 or 2.5 mg vs placebo
  overall incidence of AEs between all treatment groups: no prominent difference
[3]; sc twice weekly for 4 weeks, 0.5, 1 or 2.5 mg
  serious adverse events (SAE) throughout the study: No SAE was reported
[3]; sc twice weekly for 4 weeks, all treatment groups
  severity of injection site reactions: mild
[4]
  disease manifestations of mice afflicted with spontaneous or experimental SLE: ameliorate disease manifestations
[5]
  proliferative response of PBL of SLE patients to the human anti-DNA 16/6Id mAB: inhibit the proliferative response
